A short description of the data set: Plasma metabolite profiling (GC-MS, LC-MS, SPE-LC-MS) of rats dosed once daily over 28 days; treatment ratios versus untreated control. Format: in vivo, rat. On the procedure: A group of each 5 male and female rats was dosed once daily with the indicated compounds (see Table 10, below for compounds, applied doses and administration details) over 28 days.
Each dose group in the studies consisted of five rats per sex. Additional groups of each 5 male and female animals served as controls. Before starting the treatment period, animals, which were 62-64 days old when supplied, were acclimatized to the housing and environmental conditions for 7 days. All animals of the animal population were kept under the same constant temperature (20-24±3° C.) and the same constant humidity (30-70%). The animals of the animal population were fed ad libitum. The food to be used was essentially free of chemical or microbial contaminants. Drinking water was also offered ad libitum. Accordingly, the water was free of chemical and microbial contaminants as laid down in the European Drinking Water Directive 98/83/EG. The illumination period was 12 hours light followed by 12 hours darkness (12 hours light, from 6:00 to 18:00, and 12 hours darkness, from 18:00 to 6:00). […] The test substances (compounds) in the Tables 1 to 9 below were dosed and administered as described in the Table 10 above.
In the morning of day 7, 14, and 28, blood was taken from the retro-orbital venous plexus from fasted anaesthetized animals. From each animal, 1 ml of blood was collected with EDTA as anticoagulant. The samples were centrifuged for generation of plasma. All plasma samples were covered with a N2 atmosphere and then stored at −80° C. until analysis.
For mass spectrometry-based metabolite profiling analyses plasma samples were extracted and a polar and a non-polar (lipid) fraction was obtained. For GC-MS analysis, the non-polar fraction was treated with methanol under acidic conditions to yield the fatty acid methyl esters. Both fractions were further derivatised with O-methyl-hydroxyamine hydrochloride and pyridine to convert Oxogroups to O-methyloximes and subsequently with a silylating agent before analysis. In LC-MS analysis, both fractions were reconstituted in appropriate solvent mixtures. HPLC was performed by gradient elution on reversed phase separation columns. Mass spectrometric detection which allows target and high sensitivity MRM (Multiple Reaction Monitoring) profiling in parallel to a full screen analysis was applied as described in WO2003073464.
Steroids and their metabolites were measured by online SPE-LC-MS (Solid phase extraction-LC-MS).
Following comprehensive analytical validation steps, the data for each analyte were normalized against data from pool samples. These samples were run in parallel through the whole process to account for process variability. The significance of treatment group values specific for sex, treatment duration and metabolite was determined by comparing means of the treated groups to the means of the respective untreated control groups using WELCH-test and quantified with treatment ratios versus control and p-values.
The identification of the most important biomarkers per toxicity pattern was done by a ranking of the analytes in the tables below. Therefore the metabolic changes in reference treatments of a given pattern (shown in the table) were compared with changes of the same metabolite in other unrelated treatments. […] The maximum absolute value of the respective TVALUE was taken to indicate the most important metabolite for the pattern.

Where [1] appears, read: plasma, male rats, day 7, high dose, Table 2a.
Where [2] appears, read: plasma, male rats, day 7, high dose, Table 2b.
The mark [3] stands for this setting: plasma, male rats, day 14, high dose, Table 2b.
Where [4] appears, read: plasma, male rats, day 28, high dose, Table 2a.
The mark [5] stands for this setting: plasma, male rats, day 28, high dose, Table 2b.
Setting [6] is: plasma, female rats, day 28, low dose, Table 1c.
[7] abbreviates: plasma, female rats, day 28, low dose, Table 1d.
[8] abbreviates: plasma, male rats, day 28, low dose, Table 1b.

Marks after values point to notes of the source that are not given here.

`CC(=O)CCCCn1c(=O)c2c(ncn2C)n(C)c1=O` [Pentoxifylline]: under setting [1], the “Choline plasmalogen No 03, ratio versus control” value amounted to 1.01; the “Creatine, ratio versus control” value is reported as 0.95; the “Isoleucine, ratio versus control” value amounted to 0.93; the “Valine, ratio versus control” value is 0.98*. Further, under setting [2], the “Adrenaline (Epinephrine), ratio versus control” value is 0.34*; the “DAG (C18:1,C18:2), ratio versus control” value was 0.51*; the “Glutamate, ratio versus control” value is 0.74*; the “Glycerol, polar fraction, ratio versus control” value is recorded as 0.73*. In addition, under setting [2], the “Metanephrine, ratio versus control” value is reported as 0.48*; the “Pyruvate, ratio versus control” value is recorded as 0.76*; the “TAG No 07, ratio versus control” value was 0.46*. Further, under “plasma, male rats, day 14, high dose, Table 2a”, the “Creatine, ratio versus control” value is 1.36*. Besides, under setting [3], the “Adrenaline (Epinephrine), ratio versus control” value was found to be 1.34; the “DAG (C18:1,C18:2), ratio versus control” value is reported as 0.88*; the “Glutamate, ratio versus control” value is reported as 0.84; the “Glycerol, polar fraction, ratio versus control” value is 0.74*. Also, under setting [3], the “Metanephrine, ratio versus control” value is reported as 0.61*; the “Pyruvate, ratio versus control” value is on record as 0.62*; the “TAG No 07, ratio versus control” value is listed as 0.93. For the same molecule, under setting [4], the “Choline plasmalogen No 03, ratio versus control” value is 1.14*; the “Creatine, ratio versus control” value is 1.18*; the “Valine, ratio versus control” value was 1.1*. Besides, under setting [5], the “Adrenaline (Epinephrine), ratio versus control” value is given as 0.33*; the “DAG (C18:1,C18:2), ratio versus control” value is given as 0.72*; the “Glutamate, ratio versus control” value is reported as 0.79*; the “Glycerol, polar fraction, ratio versus control” value was 0.8. Under setting [5], the “Metanephrine, ratio versus control” value was 0.63*; the “Pyruvate, ratio versus control” value is 0.74*; the “TAG No 07, ratio versus control” value is recorded as 0.74*. Under “rat, in vivo”, the “Choline plasmalogen No 03, ratio versus control” value was 1.29* and the “Valine, ratio versus control” value is 1.05*.

As for `CCC1(c2ccccc2)C(=O)NC(=O)NC1=O` [Phenobarbital sodium], where the note is “rat, in vivo”, the “3-Indoxylsulfate, ratio versus control” value was 1.81 *; the “Coenzyme Q9, ratio versus control” value was 1.08 *; the “Glutamate, ratio versus control” value is reported as 0.78 *; the “Isoleucine, ratio versus control” value is reported as 1.12 *. Further, for the setting “rat, in vivo”, the “Ketoleucine, ratio versus control” value is recorded as 0.88 *; the “Malate, ratio versus control” value was 0.69 *; the “Pantothenic acid, ratio versus control” value is given as 1.33 *; the “Phosphate (inorganic and organic phosphates), ratio versus control” value is recorded as 1.17 *. For the same molecule, where the note is “rat, in vivo”, the “Phosphatidylcholine (C16:0, C20:4), ratio versus control” value was 0.99 *; the “Phosphatidylcholine (C16:0, C22_6), ratio versus control” value is 0.93 *; the “Pyruvate, ratio versus control” value is 0.73 *; the “Valine, ratio versus control” value is listed as 1.15 *. Moreover, under “rat, in vivo”, the “alpha-Tocopherol, ratio versus control” value is reported as 1.14 * and the “myo-Inositol, ratio versus control” value is reported as 0.94 *.

With `O=C1NC(=O)C(c2ccccc2)(c2ccccc2)N1` [Phenytoin], under setting [6], the “Coenzyme Q9, ratio versus control” value is recorded as 1.22 * and the “Valine, ratio versus control” value was 1.36 *. Besides, under setting [7], the “Cysteine, ratio versus control” value is given as 0.86 *; the “Glutamate, ratio versus control” value is 0.81 *; the “Pyruvate, ratio versus control” value is reported as 0.65 *; the “myo-Inositol, ratio versus control” value is recorded as 0.69 *. Moreover, under “plasma, male rats, day 28, low dose, Table 1a”, the “3-Indoxylsulfate, ratio versus control” value was 1.78^. Besides, under setting [8], the “Cysteine, ratio versus control” value is on record as 0.73 *; the “Ketoleucine, ratio versus control” value is given as 0.76 *; the “Malate, ratio versus control” value is reported as 0.84 *; the “Phosphatidylcholine (C16:0, C20:4), ratio versus control” value is on record as 0.99 *. Moreover, the “Phosphatidylcholine (C16:0, C22_6), ratio versus control” value under setting [8] is on record as 0.95 *. For the same molecule, where the note is “rat, in vivo”, the “Isoleucine, ratio versus control” value is 1.23 *; the “Pantothenic acid, ratio versus control” value is 1.25 *; the “Phosphate (inorganic and organic phosphates), ratio versus control” value is 1.25 *; the “alpha-Tocopherol, ratio versus control” value was 1.16 *.
